Data on four molecules can be found in US6217863A, “Rationally designed polysaccharide lyases derived from heparinase I” (Massachusetts Institute of Technology, priority 1999, dated 2001).

Where two headings read alike, the source gives them in different places.

The test deals with T1, heparinase I (heparin lyase I) of Flavobacterium heparinum, native purified (chromatofocused) enzyme, SEQ ID NO: 2 (Pedobacter heparinus, UniProt Q05819).
T1 construct: mature heparinase I from F. heparinum contains two free cysteines and not a disulfide bridge; made in house; host or cells: Flavobacterium heparinum (native enzyme purified from cell extract: hydroxyapatite, QAE-Sephadex, chromatofocusing)
T1 sequence (Q05819 22-384): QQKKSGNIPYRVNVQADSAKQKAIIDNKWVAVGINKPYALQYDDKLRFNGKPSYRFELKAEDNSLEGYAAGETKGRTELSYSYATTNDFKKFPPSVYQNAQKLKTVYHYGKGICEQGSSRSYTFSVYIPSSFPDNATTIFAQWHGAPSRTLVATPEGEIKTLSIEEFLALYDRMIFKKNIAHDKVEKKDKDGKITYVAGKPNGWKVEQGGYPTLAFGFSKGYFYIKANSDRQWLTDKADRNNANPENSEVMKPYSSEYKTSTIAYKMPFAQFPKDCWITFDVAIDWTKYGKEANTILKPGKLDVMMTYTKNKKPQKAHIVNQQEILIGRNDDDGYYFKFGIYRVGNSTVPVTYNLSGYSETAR
Nature of the test: Inactivation of heparinase I activity by sulfhydryl-specific reagents. In kind it is biochemical. Particulars: for time to complete inactivation: PBS; for inactivation rate: 500 mM iodoacetic acid; for inactivation rate constant / inactivation time constant τ: PCMB; for inactivation time constant τ: pseudo first order fit. How it is done:
Purification of heparinase I: Lyophilized powdered extracts of F. heparinum were prepared according to the method of Yang et al. (1985). Partially purified heparinase I was prepare by step gradient elution of powdered cell extracts from a hydroxyapatite column followed by reverse adsorption on a QAE-Sephadex column Further purification of the enzyme was accomplished with a chromatofocusing, 1 cm×18 cm column with PBE resin (Pharmacia). A 1.5-2.5 ml aliquot of protein (0.5-1.5 mg) in 0.01 M phosphate (pH 6.8) was applied to the column equilibrated with 0.025 M ethanolamine (pH 9.4 with acetic acid). Elution was carried out with 150 ml of 10% Polybuffer 96 (pH 6.0 with acetic acid). […] Fractions (1.5-2.0 ml) were collected in tubes containing 0.2 ml of 0.5 M phosphate buffer at pH 6.8. Immediately after collection, the fractions were assayed for heparinase I activity. […] The active fractions were pooled, and NaCl was added from a 2.0 M aqueous solution to give a final concentration of 0.1 M. Heparinase I was concentrated and equilibrated with a buffer consisting of 0.01 M NaH2 PO4 and 0.1 M NaCl at pH 6.8 (PBS) with Centricon P-30 microconcentrators (Amicon, Mass.).
Modification with Organomercurials: The reversible, sulfhydryl specific anion, PCMB, was utilized to determine the effects of sulfhydryl modification on heparinase I activity. […] The time course of inactivation in the presence and absence of heparin also was determined.
At =Ao exp(-t/.tau.)+A.infin.
where At is the fractional activity at time t, Ao is the initial factional activity, A.infin. is the residual activity at infinite time, and .tau. is the inactivation time constant in minutes or the reciprocal rate constant. Time constants were obtained by a nonlinear least squares fit of the data to the equation.
The effect of NEM modification on heparinase I activity was examined in an attempt to elucidate structural influences on the cysteine reactivities.
In order to ascertain whether significant levels of NEM bind heparinase I, labeling studies with [^3 H]NEM were undertaken.

As for `O=C(O)CI` [iodoacetic acid], the “time to complete inactivation” value reads like this: (0.1 mM iodoacetic acid, 4° C.) no more than 15 h; (1 mM iodoacetic acid, 4° C.) no more than 0.25 h. Moreover, the inactivation rate is 3±1×10^-3 h^-1 (no heparin) and 5±2×10^-4 h^-1 (presence of 2 mg/ml heparin). Also, the inhibition at 2000 µM (10 min, 2 mM iodoacetic acid in PBS, 4° C., within 10 min, read-out: heparinase I inactivated) worked out at 95 ± 5%. Besides, the “retention of activity relative to untreated heparinase I” value (iodoacetic acid treated enzyme (heparin protection experiment)) is recorded as 15±5%.
With `NC(=O)CI` [iodoacetamide], the inhibition at 120000 µM (120 mM iodoacetamide, 24 h incubation, PBS pH 7.0, 4° C.) worked out at 15%. The change in activity result (2, 5, 10 and 120 mM iodoacetamide in PBS, pH 7.0, 4° C., up to 24 h) is given as “little change in activity”.
Regarding `O=C(O)c1cc[c]([Hg][Cl])cc1` [PCMB], the “reversible loss of enzyme activity” value (PCMB at 2.5-100 μM, 4° C.) is reported as 95±5%. In addition, the inactivation rate constant (0.0 mg/ml heparin) was 1.2 min⁻¹ and the inactivation rate constant (0.5 mg/ml heparin) was 0.2 min⁻¹. The “inactivation time constant τ” value is, setting by setting: (absence of heparin) 0.8 ± 1 min; (presence of 0.5 mg/ml heparin) 5 ± 1 min.
With `CCN1C(=O)C=CC1=O` [NEM, N-ethylmaleimide], the inhibition at 1000 µM was roughly 15% (1 mM NEM overnight at 4° C., read-out: activity loss) and 15% (1 mM [3H]NEM, non-denatured enzyme, 20 h, read-out: loss of activity). For the same molecule, the change in activity result (1 mM NEM, pH 7.0, over an 8 h period) is “little change in activity”. Further, the inhibition at 10000 µM (0.75 h, 10 mM NEM, pH 7.0, 4° C., within 45 min, read-out: enzymatic activity lost) was determined as 15%.
